Experiments:
Assay in all cases: B2 Post-Emergence Efficacy - Test 2
Assay type in all cases: in vivo
Avena fatua (AVEFA) = conditions: 15 days after application, 0-100 scale
In short: (§1)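 Herbicidal effect was rated visually from 0 (no damage) to 100 (complete kill) fifteen days after treatment. Seedlings had been raised for 12 days under controlled glasshouse conditions and then sprayed with the active ingredient formulated in IF50, diluted in water with 0.2% v/v Genapol X080 adjuvant.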

Beta vulgaris (BEAVA) = conditions: 15 days after application, 0-100 scale
In short: as §1

Brassica napus (BRSNN) = conditions: 15 days after application, 0-100 scale
In short: as §1

Bromus tectorum (BROTE) = conditions: 15 days after application, 0-100 scale
In short: as §1

Eleisine indica (ELEIN) = conditions: 15 days after application, 0=no damage, 100=total kill
In short: as §1

[1] = tested on: Euphorbia hetrophylla (EPHHL); conditions: 15 days after application, 0-100 scale
In short: as §1

Galium aparine (GALAP) = conditions: 15 days after application, 0-100 scale
In short: as §1

Glycine max (GLXMA) = conditions: 15 days after application; for Herbicidal activity GLXMA: 0-100 scale; for Herbicidal activity on a 0-100 scale, GLXMA: 0=no damage, 100=total kill
In short: as §1

[2] = tested on: Ipomoea hederacea (IPOHE); conditions: 15 days after application, 0-100 scale
In short: as §1

Lolium perenne (LOLPE) = conditions: 15 days after application, 0-100 scale
In short: as §1

[3] = tested on: Panicum miliaceum (PANMI); conditions: 15 days after application, 0=no damage, 100=total kill
In short: as §1

Poa annua (POAAN) = conditions: 15 days after application, 0-100 scale
In short: as §1

Sida spinosa (SIDSP) = conditions: 15 days after application, 0-100 scale
In short: as §1

Sinapis arvensis (SINAR) = conditions: 15 days after application, 0-100 scale
In short: as §1

Sorghum bicolour (SORVU) = conditions: 15 days after application, 0=no damage, 100=total kill
In short: as §1

[4] = tested on: Xanthium strumarium (XANST); conditions: 15 days after application, 0-100 scale
In short: as §1

Zea mays (ZEAMX) = conditions: 15 days after application; for Herbicidal activity ZEAMX: 0-100 scale; for Herbicidal activity on a 0-100 scale, ZEAMX: 0=no damage, 100=total kill
In short: as §1

Cc1nn(C)c(=O)c(-c2c(F)ccc(Cl)c2CCc2ccc(C(F)(F)F)nc2)c1O [Compound 1.042, 4-[3-chloro-6-fluoro-2-[2-[6-(trifluoromethyl)-3-pyridyl]ethyl]phenyl]-5-hydroxy-2,6-dimethyl-pyridazin-3-one]
Herbicidal activity AVEFA (Avena fatua (AVEFA); 15 g/Ha): 30
Herbicidal activity AVEFA (Avena fatua (AVEFA); 30 g/Ha): 60
Herbicidal activity AVEFA (Avena fatua (AVEFA); 60 g/Ha): 80
Herbicidal activity AVEFA (Avena fatua (AVEFA); 125 g/Ha): 80
Herbicidal activity AVEFA (Avena fatua (AVEFA); 250 g/Ha): 90
Herbicidal activity AVEFA (Avena fatua (AVEFA); 500 g/Ha): 90
Herbicidal activity BEAVA (Beta vulgaris (BEAVA); 15 g/Ha): 80
Herbicidal activity BEAVA (Beta vulgaris (BEAVA); 30 g/Ha): 70
Herbicidal activity BEAVA (Beta vulgaris (BEAVA); 60 g/Ha): 80
Herbicidal activity BEAVA (Beta vulgaris (BEAVA); 125 g/Ha): 90
Herbicidal activity BEAVA (Beta vulgaris (BEAVA); 250 g/Ha): 90
Herbicidal activity BEAVA (Beta vulgaris (BEAVA); 500 g/Ha): 90
Herbicidal activity BRSNN (Brassica napus (BRSNN); 15 g/Ha): 90
Herbicidal activity BRSNN (Brassica napus (BRSNN); 30 g/Ha): 90
Herbicidal activity BRSNN (Brassica napus (BRSNN); 60 g/Ha): 90
Herbicidal activity BRSNN (Brassica napus (BRSNN); 125 g/Ha): 90
Herbicidal activity BRSNN (Brassica napus (BRSNN); 250 g/Ha): 90
Herbicidal activity BRSNN (Brassica napus (BRSNN); 500 g/Ha): 90
Herbicidal activity BROTE (Bromus tectorum (BROTE); 15 g/Ha): 20
Herbicidal activity BROTE (Bromus tectorum (BROTE); 30 g/Ha): 30
Herbicidal activity BROTE (Bromus tectorum (BROTE); 60 g/Ha): 70
Herbicidal activity BROTE (Bromus tectorum (BROTE); 125 g/Ha): 80
Herbicidal activity BROTE (Bromus tectorum (BROTE); 250 g/Ha): 80
Herbicidal activity BROTE (Bromus tectorum (BROTE); 500 g/Ha): 90
Herbicidal activity on a 0-100 scale, ELEIN (Eleisine indica (ELEIN); 15 g/Ha): 0
Herbicidal activity on a 0-100 scale, ELEIN (Eleisine indica (ELEIN); 30 g/Ha): 70
Herbicidal activity on a 0-100 scale, ELEIN (Eleisine indica (ELEIN); 60 g/Ha): 70
Herbicidal activity on a 0-100 scale, ELEIN (Eleisine indica (ELEIN); 125 g/Ha): 80
Herbicidal activity on a 0-100 scale, ELEIN (Eleisine indica (ELEIN); 250 g/Ha): 80
Herbicidal activity on a 0-100 scale, ELEIN (Eleisine indica (ELEIN); 500 g/Ha): 90
Herbicidal activity EPHHL ([1]; 15 g/Ha): 80
Herbicidal activity EPHHL ([1]; 30 g/Ha): 90
Herbicidal activity EPHHL ([1]; 60 g/Ha): 90
Herbicidal activity EPHHL ([1]; 125 g/Ha): 100
Herbicidal activity EPHHL ([1]; 250 g/Ha): 100
Herbicidal activity EPHHL ([1]; 500 g/Ha): 100
Herbicidal activity GALAP (Galium aparine (GALAP); 15 g/Ha): 10
Herbicidal activity GALAP (Galium aparine (GALAP); 30 g/Ha): 30
Herbicidal activity GALAP (Galium aparine (GALAP); 60 g/Ha): 60
Herbicidal activity GALAP (Galium aparine (GALAP); 125 g/Ha): 80
Herbicidal activity GALAP (Galium aparine (GALAP); 250 g/Ha): 80
Herbicidal activity GALAP (Galium aparine (GALAP); 500 g/Ha): 90
Herbicidal activity GLXMA (Glycine max (GLXMA); 15 g/Ha): 60
Herbicidal activity on a 0-100 scale, GLXMA (Glycine max (GLXMA); 15 g/Ha): 60
Herbicidal activity GLXMA (Glycine max (GLXMA); 30 g/Ha): 80
Herbicidal activity on a 0-100 scale, GLXMA (Glycine max (GLXMA); 30 g/Ha): 80
Herbicidal activity GLXMA (Glycine max (GLXMA); 60 g/Ha): 90
Herbicidal activity on a 0-100 scale, GLXMA (Glycine max (GLXMA); 60 g/Ha): 90
Herbicidal activity GLXMA (Glycine max (GLXMA); 125 g/Ha): 90
Herbicidal activity on a 0-100 scale, GLXMA (Glycine max (GLXMA); 125 g/Ha): 90
Herbicidal activity GLXMA (Glycine max (GLXMA); 250 g/Ha): 100
Herbicidal activity on a 0-100 scale, GLXMA (Glycine max (GLXMA); 250 g/Ha): 100
Herbicidal activity GLXMA (Glycine max (GLXMA); 500 g/Ha): 100
Herbicidal activity on a 0-100 scale, GLXMA (Glycine max (GLXMA); 500 g/Ha): 100
Herbicidal activity IPOHE ([2]; 15 g/Ha): 100
Herbicidal activity IPOHE ([2]; 30 g/Ha): 100
Herbicidal activity IPOHE ([2]; 60 g/Ha): 100
Herbicidal activity IPOHE ([2]; 125 g/Ha): 100
Herbicidal activity IPOHE ([2]; 250 g/Ha): 100
Herbicidal activity IPOHE ([2]; 500 g/Ha): 100
Herbicidal activity LOLPE (Lolium perenne (LOLPE); 15 g/Ha): 60
Herbicidal activity LOLPE (Lolium perenne (LOLPE); 30 g/Ha): 70
Herbicidal activity LOLPE (Lolium perenne (LOLPE); 60 g/Ha): 70
Herbicidal activity LOLPE (Lolium perenne (LOLPE); 125 g/Ha): 90
Herbicidal activity LOLPE (Lolium perenne (LOLPE); 250 g/Ha): 90
Herbicidal activity LOLPE (Lolium perenne (LOLPE); 500 g/Ha): 90
Herbicidal activity on a 0-100 scale, PANMI ([3]; 15 g/Ha): 10
Herbicidal activity on a 0-100 scale, PANMI ([3]; 30 g/Ha): 60
Herbicidal activity on a 0-100 scale, PANMI ([3]; 60 g/Ha): 80
Herbicidal activity on a 0-100 scale, PANMI ([3]; 125 g/Ha): 90
Herbicidal activity on a 0-100 scale, PANMI ([3]; 250 g/Ha): 100
Herbicidal activity on a 0-100 scale, PANMI ([3]; 500 g/Ha): 100
Herbicidal activity POAAN (Poa annua (POAAN); 15 g/Ha): 20
Herbicidal activity POAAN (Poa annua (POAAN); 30 g/Ha): 70
Herbicidal activity POAAN (Poa annua (POAAN); 60 g/Ha): 80
Herbicidal activity POAAN (Poa annua (POAAN); 125 g/Ha): 90
Herbicidal activity POAAN (Poa annua (POAAN); 250 g/Ha): 90
Herbicidal activity POAAN (Poa annua (POAAN); 500 g/Ha): 90
Herbicidal activity SIDSP (Sida spinosa (SIDSP); 15 g/Ha): 90
Herbicidal activity SIDSP (Sida spinosa (SIDSP); 30 g/Ha): 90
Herbicidal activity SIDSP (Sida spinosa (SIDSP); 60 g/Ha): 100
Herbicidal activity SIDSP (Sida spinosa (SIDSP); 250 g/Ha): 100
Herbicidal activity SIDSP (Sida spinosa (SIDSP); 500 g/Ha): 100
Herbicidal activity SINAR (Sinapis arvensis (SINAR); 15 g/Ha): 80
Herbicidal activity SINAR (Sinapis arvensis (SINAR); 30 g/Ha): 90
Herbicidal activity SINAR (Sinapis arvensis (SINAR); 60 g/Ha): 90
Herbicidal activity SINAR (Sinapis arvensis (SINAR); 125 g/Ha): 90
Herbicidal activity SINAR (Sinapis arvensis (SINAR); 250 g/Ha): 90
Herbicidal activity SINAR (Sinapis arvensis (SINAR); 500 g/Ha): 90
Herbicidal activity on a 0-100 scale, SORVU (Sorghum bicolour (SORVU); 15 g/Ha): 0
Herbicidal activity on a 0-100 scale, SORVU (Sorghum bicolour (SORVU); 30 g/Ha): 70
Herbicidal activity on a 0-100 scale, SORVU (Sorghum bicolour (SORVU); 60 g/Ha): 80
Herbicidal activity on a 0-100 scale, SORVU (Sorghum bicolour (SORVU); 125 g/Ha): 90
Herbicidal activity on a 0-100 scale, SORVU (Sorghum bicolour (SORVU); 250 g/Ha): 90
Herbicidal activity on a 0-100 scale, SORVU (Sorghum bicolour (SORVU); 500 g/Ha): 100
Herbicidal activity XANST ([4]; 15 g/Ha): 80
Herbicidal activity XANST ([4]; 125 g/Ha): 90
Herbicidal activity XANST ([4]; 250 g/Ha): 100
Herbicidal activity XANST ([4]; 500 g/Ha): 100
Herbicidal activity ZEAMX (Zea mays (ZEAMX); 15 g/Ha): 0
Herbicidal activity on a 0-100 scale, ZEAMX (Zea mays (ZEAMX); 15 g/Ha): 0
Herbicidal activity ZEAMX (Zea mays (ZEAMX); 30 g/Ha): 10
Herbicidal activity on a 0-100 scale, ZEAMX (Zea mays (ZEAMX); 30 g/Ha): 10
Herbicidal activity ZEAMX (Zea mays (ZEAMX); 60 g/Ha): 20
Herbicidal activity on a 0-100 scale, ZEAMX (Zea mays (ZEAMX); 60 g/Ha): 20
Herbicidal activity ZEAMX (Zea mays (ZEAMX); 125 g/Ha): 60
Herbicidal activity on a 0-100 scale, ZEAMX (Zea mays (ZEAMX); 125 g/Ha): 60
Herbicidal activity ZEAMX (Zea mays (ZEAMX); 250 g/Ha): 70
Herbicidal activity on a 0-100 scale, ZEAMX (Zea mays (ZEAMX); 250 g/Ha): 70
Herbicidal activity ZEAMX (Zea mays (ZEAMX); 500 g/Ha): 90
Herbicidal activity on a 0-100 scale, ZEAMX (Zea mays (ZEAMX); 500 g/Ha): 90
